Data on eight molecules can be found in US20050084908A1, “Methods for detecting binding of low-molecular-weight compound and its binding partner molecule” (CHUGAI SEIYAKU KABUSHIKI KAISHA, priority 2000, published 2005).

“And” between values parts separate entries of the source, which are not always exact repeats. Equal values may be shown once.

Series [1] concerns the target T1, Recombinant human Vitamin D3 receptor (VDR) (Homo sapiens, UniProt P11473).
T1 construct: purchased Pan Vera Corp
T1 sequence (P11473 1-427): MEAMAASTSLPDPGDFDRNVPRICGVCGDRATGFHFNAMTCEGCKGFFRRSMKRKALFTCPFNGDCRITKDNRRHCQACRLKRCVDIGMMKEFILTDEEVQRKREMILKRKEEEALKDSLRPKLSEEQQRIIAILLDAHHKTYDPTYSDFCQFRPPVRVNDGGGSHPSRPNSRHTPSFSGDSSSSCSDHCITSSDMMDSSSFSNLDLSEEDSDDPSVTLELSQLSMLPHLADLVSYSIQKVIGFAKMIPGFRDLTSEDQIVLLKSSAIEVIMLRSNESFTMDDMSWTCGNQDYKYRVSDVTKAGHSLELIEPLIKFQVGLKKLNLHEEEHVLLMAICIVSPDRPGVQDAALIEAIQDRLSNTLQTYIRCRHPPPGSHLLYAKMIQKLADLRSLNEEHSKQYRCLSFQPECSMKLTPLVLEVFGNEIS
Put plainly: Inhibition of binding of immobilized ED-533 to VDR (SPR, BIACORE 3000). Conditions: VDR 100 nM; for inhibitory activity compared with 1,25(OH)2 vitamin D3 (in words): compound 0, 10, 100 or 1000 nM, FIG. 7; for IC50: test compound 0-1000 nM, 1 hr room temperature, 5% DMSO. On the procedure:
HBS-EP containing 5% DMSO was used as a running buffer, and the flow rate was set at 5 μl/min. Carboxyl groups of carboxymethyl dextran on the Sensor Chip CM5 were activated by injecting 100 μl of 0.05 M N-hydroxysuccinimide (NHS)/0.2 M N-ethyl-N′-(3-dimethyl aminopropyl)carbodiimide (EDC). […] Aliquots (10 to 40 μl) were injected onto the chip and immobilized by the amine coupling method. Excessive activated groups were blocked by injecting 100 μl of ethanolamine, pH 8.5. Non-covalently bound substances were washed out by injecting 10 μl each of 50% aqueous DMSO solution and 50% PrOH/10% DMSO/50 mM HCl.
The structural formulae of OCT and ED-71 are represented by formulae (2) and (3), respectively. [drawing 2]
Background: Surface plasmon resonance follows binding to a sensor surface in real time, without labels.

Series [2] in a line: BIACORE (SPR) binding activity assay of MBP-ERLBD and ERLBD to immobilized 7α-(9-aminononyl)estradiol. Conditions: analyte 20 μg/ml, 10 μl injection; single values of duplicate (n = 2). On the procedure: Immobilization of 7α-(9-aminononyl)estradiol on the Sensor Chip CM5 (Pharmacia) was carried out as follows. HBS was used as a continuous flow buffer, and the flow rate was set at 5 μl/min. Carboxyl groups of carboxymethyl dextran on the Sensor Chip CM5 were activated by injecting 100 μl of 0.05 M N-hydroxysuccinimide (NHS)/0.2 M N-ethyl-N′-(3-dimethyl aminopropyl)-carbodiimide (EDC). 7α-(9-aminononyl)estradiol (approx. 7 mg/ml in benzene, approx. 4.5 mg/ml in 2-PrOH) was first diluted 10-fold in EtOH, further diluted 10-fold using 10 mM Na-acetate buffer, pH 4.0 or pH 4.5. Aliquots (10 to 50 μl) were injected onto the chip and immobilized by the amine coupling method. Then, excessive activated groups were blocked by injecting 100 μl of ethanolamine, pH 8.5. Further, non-covalently bound substances were washed out by 10 μl of 0.1 M Gly-HCl buffer, pH 2.5 and 10 mM HCl.
The reaction principle was illustrated in FIG. 2. MBP-ERLBD (20 μg/ml, 10 μl) or ERLBD (20 μg/ml, 10 μl) which were prepared by the above-described method were injected onto the chip to assay their binding activities to the immobilized 7α-(9-aminononyl)estradiol. Regeneration and washing of sensor chips were performed by injecting 10 μl of 7% propanol/50 mM HCl.
For the purpose of measuring the reproducibility and lot-to-lot variations of the binding activity assay, the binding activity assay was performed using different lots of MBP-ERLBD and ERLBD preparations to compare assay values in duplicate. The binding levels of MBP-ERLBD (Lot #90) (20 μg/ml, 10 μl) were 2124.9 and 2048.9 RU, indicating a high reproducibility (% CV=2.6%) (Table 1). Highly reproducible data were also obtained for ERLBD (Lots. #110, #111, #112, and #113) (20 μg/ml, 10 μl each), as shown in Table 1. […] The results also indicate that binding activities can be accurately compared lot-to-lot variations, and that this method may be applied to the product quality control, etc. This method has also enabled easily monitoring active fractions in the purification process of ERLBD, leading to shortening of its preparation time. Results of examination of the reproducibility of the binding activity assay and the comparison thereof among sample lots are summarized in Table 1.
Using MBP-ERLBD (Lot #90) and ERLBD (Lots. #110, #111, #112, and #113) as the binding molecule, the binding activity was assayed in duplicate. RU is the unit of surface plasmon resonance intensity. % CV represents the dispersion in duplicate, indicating the larger the value, the greater the dispersion.

Series [3] in a line: Conventional RI method binding activity assay using labeled oestradiol. The settings on record: 100% = [6,7-3H]oestradiol bound to all the ERLBD added, single replicate values. The source says:
FIG. 5 schematically illustrates a conventional binding assay using a ligand labeled with radioisotope (RI). ^3H-ligand stands for [6,7-^3H]estradiol, MBP-LBD for MBP-ERLBD, and LBD for ERLBD After the ligand and the binding molecule are mixed and allowed to stand at room temperature for 6 hr, the resulting mixture is subjected to the Bound/Free separation procedure. The amount of [6,7-^3H]estradiol bound to MBP-ERLBD or ERLBD is detected with a scintilator.
The binding activity of [6,7-^3H]oestradiol (Amersham Pharmacia Biotech) to a full-length human estrogen receptor-α, ERLBD, and MBP-ERLBD was assayed according to a conventional method using a ligand labeled with radioisotope (RI) (Sasson, S. and Notides, A. C. (1988) Mol. Endcrinol., Vol. 2, No. 4, p307-312). The reaction is schematically illustrated in FIG. 5. The RI value obtained when [6,7-^3H]oestradiol bound to all the ERLBD added to the assay system was taken as 100%, and the relative binding activity was calculated. A full-length human estrogen receptor-α and MBP-ERLBD (lot #87 and #90) were used as the binding molecule. […] The method of the present invention uses proteins as the binding molecule, and the reaction time is thus short, so that the binding activity can be measured with a good reproducibility without causing a decrease in the binding activity.

For `C=C1/C(=C\C=C2/CCC[C@]3(C)[C@@H]([C@H](C)CCCC(C)(C)O)CC[C@@H]23)C[C@@H](O)[C@@H](OCCCO)[C@@H]1O` [ED-71, 2β-(3-Hydroxypropoxy)-1α,25-dihydroxyvitamin D3], in series [1], the “inhibitory activity compared with 1,25(OH)2 vitamin D3 (in words)” value was “almost the same inhibitory activities” and the IC50 amounted to 500 nM.

Regarding `C=C1/C(=C\C=C2/CCC[C@@]3(C)C2CC[C@@H]3[C@H](C)CCCC(C)(O)CCCCCCCCCCN)C[C@@H](O)C[C@@H]1O` (stereo partly drawn) [ED-533, (1α,3β,5Z,7E)-25-(10-aminodecanyl)-27-nor-9,10-secocholesta-5,7,10(19)-triene-1,3,25-triol], in series [1], the “inhibitory activity compared with 1,25(OH)2 vitamin D3 (in words)” value was “almost the same inhibitory activities” and the IC50 was found to be 520 nM.

For the molecule `C=C1/C(=C\C=C2/CCC[C@]3(C)[C@@H]([C@H](C)OCCC(C)(C)O)CC[C@@H]23)C[C@@H](O)C[C@@H]1O` [OCT, 1α,25-dihydroxy-22-oxavitamin D3], in series [1], the “inhibitory activity compared with 1,25(OH)2 vitamin D3 (in words)” value is listed as “almost the same inhibitory activities” and the concentration for half-maximal inhibition (IC50) was determined as 110 nM.

B1: ERLBD: partial sequence containing the ligand binding domain of human estrogen receptor-α (Ala288-Arg555) (protein, UniProt P03372 288-555, looked up, fragment)
chain: AANLWPSPLMIKRSKKNSLALSLTADQMVSALLDAEPPILYSEYDPTRPFSEASMMGLLTNLADRELVHMINWAKRVPGFVDLTLHDQVHLLECAWLEILMIGLVWRSMEHPGKLLFAPNLLLDRNQGKCVEGMVEIFDMLLATSSRFRMMNLQGEEFVCLKSIILLNSGVYTFLSSTLKSLEEKDHIHRVLDKITDTLIHLMAKAGLTLQQQHQRLAQLLLILSHIRHMSNKGMEHLYSMKCKNVVPLYDLLLEMLDAHRLHAPTSR
For B1, in series [2], the “Response [RU], binding level to immobilized 7α-(9-aminononyl)estradiol” value (from here on “Response [RU], binding level”) is on record as “about 2000 RU”. The “Relative activity (%), binding of [6,7-3H]oestradiol” value in series [3] is on record as “about 10%”.

B2: ERLBD #113: lot of purified ERLBD (protein, UniProt P03372 288-555, looked up, fragment)
chain: B1 chain
On to B2, for which, in series [2], the “Response [RU], binding level” value is 1613.7 RU and 1597.3 RU.

B3: ERLBD #110: lot of purified ERLBD (protein, UniProt P03372 288-555, looked up, fragment)
chain: B1 chain
Turning to B3, the “Response [RU], binding level” value in series [2] was 1825.8 RU and 1815.0 RU.

B4: ERLBD #111: lot of purified ERLBD (protein, UniProt P03372 288-555, looked up, fragment)
chain: B1 chain
As for B4, the “Response [RU], binding level” value in series [2] was 1032.0 RU and 990.3 RU.

B5: ERLBD #112: lot of purified ERLBD (protein, UniProt P03372 288-555, looked up, fragment)
chain: B1 chain
Turning to B5, in series [2], the “Response [RU], binding level” value is 1255.7 RU and 1203.9 RU.

For orientation: IC50 means the concentration needed to halve the response being measured.
